Read-outs that look alike come from different tables or passages of the source. Where a SMILES comes first, the peptide text is derived from it. Where no end group is shown, it is not given here. [ ]: non-standard residue; d: D form. pT = C[C@@H](OP(=O)(O)O)[C@H](N)C(=O)O; pS = N[C@@H](COP(=O)(O)O)C(=O)O
Experiments:
[1] = target: T1, 14-3-3 isoform theta (Homo sapiens, UniProt P27348); test: Label-free microscale thermophoresis (MST) binding, 14-3-3 theta
T1 construct: His6; made in house; host or cells: Escherichia coli BL21 Rosetta (DE3)
T1 sequence (P27348 1-245): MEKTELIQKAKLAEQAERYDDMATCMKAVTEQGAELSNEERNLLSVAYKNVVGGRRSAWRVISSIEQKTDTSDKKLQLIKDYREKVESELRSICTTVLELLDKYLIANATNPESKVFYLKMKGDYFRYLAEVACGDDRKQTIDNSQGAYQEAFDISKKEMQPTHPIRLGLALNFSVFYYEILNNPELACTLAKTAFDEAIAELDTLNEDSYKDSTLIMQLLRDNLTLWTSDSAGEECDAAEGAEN
Method: (§1) The binding of phosphorylated sirtuin peptides (Fig. 1 ▸) was analyzed using the change in the intrinsic fluorescence signal of the 14-3-3 proteins measured with label-free microscale thermophoresis using a Nanotemper Monolith NT.LabelFree or NT.115. A typical binding experiment using 0.6 µM 14-3-3 protein was performed in a modified MST buffer consisting of 25 mM MES pH 6.5, 5 mM MgCl2, 5 mM CaCl2. The measurements were performed at 25°C using a LED power of 10–40%. All measurements were performed at least in duplicate, and the results shown are representative measurements individually fitted using GraFit 7 (Erathicus Software, Horley, United Kingdom).
(§2) Figure 1 Classification and analysis of sirtuin PSSM results for potential 14-3-3 phosphoserine binding sites. Peptides with a gray background were not analyzed experimentally. Score is the overall PSSM score for the phosphorylation site; rank is the order within the 17 proposed sirtuin binding sites. Conserved residues in the 14-3-3 motifs are marked in green. Residues with restricted (proline) or very flexible (glycine) protein backbone or with a very large side chain (tryptophan) are marked in red. Amino acids with the same or similar hydrophobicity/size are shown in magenta. Kd values from duplicate measurements are colored green for Kd < 100 µM. Fields marked in red indicate no binding or no successful experiment. TEXT PRINTED IN THE PICTURE: Sirt1 S26: Affinity estimates by MicroScale Thermophoresis [μM], 14-3-3 isoform sigma: none | Sirt1 S670: Affinity estimates by MicroScale Thermophoresis [μM], 14-3-3 isoform gamma: aggr.; Affinity estimates by MicroScale Thermophoresis [μM], 14-3-3 isoform epsilon: > 183; Affinity estimates by MicroScale Thermophoresis [μM], 14-3-3 isoform theta: 93; Affinity estimates by MicroScale Thermophoresis [μM], 14-3-3 isoform sigma: 5 | Sirt3 S103: Affinity estimates by MicroScale Thermophoresis [μM], 14-3-3 isoform gamma: aggr.; Affinity estimates by MicroScale Thermophoresis [μM], 14-3-3 isoform epsilon: > 267; Affinity estimates by MicroScale Thermophoresis [μM], 14-3-3 isoform theta: 52; Affinity estimates by MicroScale Thermophoresis [μM], 14-3-3 isoform sigma: 10 | Sirt3 S103wt: Affinity estimates by MicroScale Thermophoresis [μM], 14-3-3 isoform gamma: aggr.; Affinity estimates by MicroScale Thermophoresis [μM], 14-3-3 isoform theta: none; Affinity estimates by MicroScale Thermophoresis [μM], 14-3-3 isoform sigma: none | Sirt3 S105: Affinity estimates by MicroScale Thermophoresis [μM], 14-3-3 isoform gamma: aggr.; Affinity estimates by MicroScale Thermophoresis [μM], 14-3-3 isoform epsilon: > 215; Affinity estimates by MicroScale Thermophoresis [μM], 14-3-3 isoform theta: 60; Affinity estimates by MicroScale Thermophoresis [μM], 14-3-3 isoform sigma: none | Sirt5 S168: Affinity estimates by MicroScale Thermophoresis [μM], 14-3-3 isoform epsilon: aggr.; Affinity estimates by MicroScale Thermophoresis [μM], 14-3-3 isoform theta: aggr.; Affinity estimates by MicroScale Thermophoresis [μM], 14-3-3 isoform sigma: > 329 | Sirt6 T337: Affinity estimates by MicroScale Thermophoresis [μM], 14-3-3 isoform epsilon: > 420; Affinity estimates by MicroScale Thermophoresis [μM], 14-3-3 isoform sigma: 12 | Sirt6 S338: Affinity estimates by MicroScale Thermophoresis [μM], 14-3-3 isoform epsilon: 19; Affinity estimates by MicroScale Thermophoresis [μM], 14-3-3 isoform sigma: 24 | Sirt7 S136: Affinity estimates by MicroScale Thermophoresis [μM], 14-3-3 isoform epsilon: none; Affinity estimates by MicroScale Thermophoresis [μM], 14-3-3 isoform theta: 30; Affinity estimates by MicroScale Thermophoresis [μM], 14-3-3 isoform sigma: 49

[2] = target: T2, 14-3-3 isoform epsilon (Homo sapiens, UniProt P62258); test: Label-free microscale thermophoresis (MST) binding, 14-3-3 epsilon
T2 construct: His6; made in house; host or cells: Escherichia coli BL21 Rosetta (DE3)
T2 sequence (P62258 1-255): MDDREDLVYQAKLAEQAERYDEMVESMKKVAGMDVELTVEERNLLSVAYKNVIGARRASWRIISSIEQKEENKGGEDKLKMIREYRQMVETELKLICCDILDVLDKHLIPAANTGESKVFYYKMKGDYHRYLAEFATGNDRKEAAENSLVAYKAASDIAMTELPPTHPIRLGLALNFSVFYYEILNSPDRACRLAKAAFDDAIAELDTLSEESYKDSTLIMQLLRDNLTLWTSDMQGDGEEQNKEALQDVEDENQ
Method: as §1, §2

[3] = target: T3, 14-3-3 isoform gamma (Homo sapiens, UniProt P61981); test: Label-free microscale thermophoresis (MST) binding, 14-3-3 gamma; conditions: 0.6 µM 14-3-3 protein, 25 mM MES pH 6.5, 5 mM MgCl2, 5 mM CaCl2, 25°C, Kd from duplicate measurements, aggr. = no successful experiment
T3 construct: His6; made in house; host or cells: Escherichia coli BL21 Rosetta (DE3)
T3 sequence (P61981 1-247): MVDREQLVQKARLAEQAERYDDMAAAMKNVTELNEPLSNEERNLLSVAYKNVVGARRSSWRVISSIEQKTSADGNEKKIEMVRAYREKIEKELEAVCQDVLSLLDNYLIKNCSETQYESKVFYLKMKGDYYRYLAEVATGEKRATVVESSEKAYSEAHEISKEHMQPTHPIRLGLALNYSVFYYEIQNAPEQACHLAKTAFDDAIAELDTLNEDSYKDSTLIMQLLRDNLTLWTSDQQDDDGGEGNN
Method: as §1
Figure 1 Classification and analysis of sirtuin PSSM results for potential 14-3-3 phosphoserine binding sites. Peptides with a gray background were not analyzed experimentally. Score is the overall PSSM score for the phosphorylation site; rank is the order within the 17 proposed sirtuin binding sites. Conserved residues in the 14-3-3 motifs are marked in green. Residues with restricted (proline) or very flexible (glycine) protein backbone or with a very large side chain (tryptophan) are marked in red. Amino acids with the same or similar hydrophobicity/size are shown in magenta. Kd values from duplicate measurements are colored green for Kd < 100 µM. Fields marked in red indicate no binding or no successful experiment. […]

[4] = target: T4, 14-3-3σ-ΔC (Homo sapiens, UniProt P31947); test: Label-free microscale thermophoresis (MST) binding, 14-3-3σ; conditions: for Affinity estimates by MicroScale Thermophoresis, 14-3-3 isoform sigma (Kd): Fig. 1, label-free MST, 0.6 µM 14-3-3 protein, 25 mM MES pH 6.5, 5 mM MgCl2, 5 mM CaCl2, 25°C, Kd from duplicate measurements
T4 construct: His6; made in house; host or cells: Escherichia coli BL21 Rosetta (DE3)
T4 sequence (P31947 1-231 limits assumed): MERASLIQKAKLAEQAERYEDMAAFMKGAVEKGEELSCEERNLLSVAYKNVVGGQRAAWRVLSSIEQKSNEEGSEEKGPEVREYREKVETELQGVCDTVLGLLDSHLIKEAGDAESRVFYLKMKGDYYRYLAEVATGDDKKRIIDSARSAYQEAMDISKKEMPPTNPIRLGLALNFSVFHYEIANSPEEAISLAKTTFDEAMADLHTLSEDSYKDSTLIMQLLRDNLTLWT
Method: as §1, §2
For nine of the sites, including sites from all sirtuin isoforms except Sirt4, endecameric phosphopeptides were chemically synthesized for in vitro analysis. […]

[5] = target: T5, 14-3-3 epsilon (Homo sapiens); test: MST
T5 chain: T2 sequence (P62258 1-255)

[6] = target: T6, 14-3-3σ-ΔC (C-terminally truncated human 14-3-3σ) (human, UniProt P31947 1-231); test: MST
T6 chain: T4 sequence (P31947 1-231 limits assumed)

[7] = target: T7, 14-3-3 theta (Homo sapiens); test: MST
T7 chain: T1 sequence (P27348 1-245)

[8] = label-free MST, 0.6 µM 14-3-3 protein, 25 mM MES pH 6.5, 5 mM MgCl2, 5 mM CaCl2, 25°C, Kd from duplicate measurements

CC[C@H](C)[C@H](NC(=O)[C@H](CO)NC(=O)[C@@H](N)CCCNC(=N)N)C(=O)N[C@@H](CO)C(=O)N[C@@H](Cc1ccccc1)C(=O)N[C@@H](COP(=O)(O)O)C(=O)N[C@H](C(=O)NCC(=O)N[C@@H](C)C(=O)N[C@@H](CO)C(=O)N[C@@H](CO)C(=O)O)C(C)C [Sirt3^pS105] (H-RSISF[pS]VGASS-OH)
Kd [1]: 60 µM
Kd [2]: > 215 µM
Affinity estimates by MicroScale Thermophoresis, 14-3-3 isoform gamma (Kd) [3]: aggr.
Kd [4]: 19.4 ± 3 µM
Affinity estimates by MicroScale Thermophoresis, 14-3-3 isoform sigma (Kd) [4]: none

C[C@H](NC(=O)[C@@H]1CCCN1C(=O)[C@H](COP(=O)(O)O)NC(=O)[C@@H](NC(=O)[C@@H]1CCCN1C(=O)[C@H](CCCNC(=N)N)NC(=O)[C@H](CCC(=O)O)NC(=O)[C@@H](N)CCCNC(=N)N)[C@@H](C)O)C(=O)N1CCC[C@H]1C(=O)N[C@@H](Cc1c[nH]cn1)C(=O)N[C@@H](CCCNC(=N)N)C(=O)O [Sirt6^pS338] (H-RERPT[pS]PAPHR-OH)
Kd ([2]; label-free MST, 0.6 µM 14-3-3 protein, 25 mM MES pH 6.5, 5 mM MgCl2, 5 mM CaCl2, 25°C, Kd from duplicate measurements, read-out: Affinity estimates by MicroScale Thermophoresis, 14-3-3 isoform epsilon (Kd)): 19 µM

C[C@H](NC(=O)[C@@H]1CCCN1C(=O)[C@H](CO)NC(=O)[C@@H](NC(=O)[C@@H]1CCCN1C(=O)[C@H](CCCNC(=N)N)NC(=O)[C@H](CCC(=O)O)NC(=O)[C@H](CCCNC(=N)N)NC(=O)[C@@H](N)CCCCN)[C@@H](C)OP(=O)(O)O)C(=O)N1CCC[C@H]1C(=O)N[C@@H](Cc1c[nH]cn1)C(=O)O [Sirt6^pT337] (H-KRERP[pT]SPAPH-OH)
Kd [2]: > 420 µM

CC[C@H](C)[C@H](NC(=O)[C@H](CO)NC(=O)[C@H](CCCNC(=N)N)NC(=O)[C@H](CCCNC(=N)N)NC(=O)CN)C(=O)N[C@@H](COP(=O)(O)O)C(=O)N[C@@H](Cc1ccccc1)C(=O)N[C@@H](CO)C(=O)N[C@H](C(=O)NCC(=O)N[C@@H](C)C(=O)O)C(C)C [Sirt3^pS103] (H-GRRSI[pS]FSVGA-OH)
Kd [1]: 52 µM
Kd [2]: > 267 µM
Affinity estimates by MicroScale Thermophoresis, 14-3-3 isoform gamma (Kd) [3]: aggr.
Kd [4]: 2.1 ± 1.1 µM

CC(C)C[C@H](NC(=O)[C@H](CC(=O)O)NC(=O)[C@H](C)NC(=O)[C@H](C)NC(=O)[C@H](COP(=O)(O)O)NC(=O)[C@@H](NC(=O)[C@H](CO)NC(=O)[C@H](CCCNC(=N)N)NC(=O)CNC(=O)[C@@H](N)CCCCN)C(C)C)C(=O)N[C@@H](CO)C(=O)O [Sirt7 S136] (H-KGRSV[pS]AADLS-OH)
Kd ([1]; label-free MST, 0.6 µM 14-3-3 protein, 25 mM MES pH 6.5, 5 mM MgCl2, 5 mM CaCl2, 25°C, Kd from duplicate measurements, read-out: Affinity estimates by MicroScale Thermophoresis, 14-3-3 isoform theta (Kd)): 30 µM
Affinity estimates by MicroScale Thermophoresis, 14-3-3 isoform epsilon (Kd) [2, 8]: none

CC[C@H](C)[C@H](NC(=O)[C@H](CO)NC(=O)[C@H](CCCNC(=N)N)NC(=O)[C@H](CCCNC(=N)N)NC(=O)CN)C(=O)N[C@@H](CO)C(=O)N[C@@H](Cc1ccccc1)C(=O)N[C@@H](CO)C(=O)N[C@H](C(=O)NCC(=O)N[C@@H](C)C(=O)O)C(C)C [Sirt3^S103] (H-GRRSISFSVGA-OH)
Affinity estimates by MicroScale Thermophoresis, 14-3-3 isoform theta (Kd) [1, 8]: none
Affinity estimates by MicroScale Thermophoresis, 14-3-3 isoform gamma (Kd) [3]: aggr.
Affinity estimates by MicroScale Thermophoresis, 14-3-3 isoform sigma (Kd) [4]: none

CC(C)[C@H](NC(=O)CNC(=O)[C@H](CS)NC(=O)[C@H](COP(=O)(O)O)NC(=O)[C@@H](NC(=O)[C@H](CS)NC(=O)[C@H](CCCNC(=N)N)NC(=O)[C@@H](NC(=O)[C@@H](N)CCCCN)[C@@H](C)O)[C@@H](C)O)C(=O)N[C@H](C(=O)N[C@@H](C)C(=O)O)C(C)C [Sirt5 S168] (H-KTRCT[pS]CGVVA-OH; N-terminus and C-terminus assumed)
Affinity estimates by MicroScale Thermophoresis, 14-3-3 isoform theta (Kd) [1, 8]: aggr.
Affinity estimates by MicroScale Thermophoresis, 14-3-3 isoform epsilon (Kd) [2, 8]: aggr.

B1: Sirt6^pS338 phospho-endecamer peptide (peptide)
chain: RERPT[pS]PAPHR
Kd [5]: 19 µM
Kd [6]: 24 µM

B2: Sirt7 pS136 (peptide)
chain: KGRSV[pS]AADLS
Kd [6]: 49 µM

B3: Sirt7 pS136 (peptide)
chain: KGRSV[pS]AADLS
Kd [7]: 30 µM

B4: Sirt5 pS168 (peptide)
chain: KTRCT[pS]CGVVA
modifications: cysteine pairing not given here
Kd [6]: > 329 µM

B5: Sirt6^pT336 phospho-endecamer peptide (peptide)
chain: KRERP[pT]SPAPH
Kd [5]: > 420 µM
Kd [6]: 12 µM

B6: Sirt3^pS105 phospho-endecamer peptide (peptide)
chain: RSISF[pS]VGASS
modifications: also: phosphoserine at 105 (place in chain not given here)
Kd [7]: 60 µM
Kd [5]: > 215 µM

Reference: article PMC12809495, “Potential 14-3-3 binding sites in sirtuins reveal extended phosphosite-recognition modes” (Acta Crystallographica Section F: Structural Biology …, 2026)
